Experimental data reported in ChEMBL document CHEMBL1201862, “PubChem BioAssay data set” (2004).
Calls of active or inactive are those of the source.

Key:
[1] = target: Galanin receptor type 3 (Homo sapiens, UniProt O60755); assay: Fluorescence-based cell-based primary high throughput dose response assay to identify antagonists of the Galanin Receptor 3 (GalR3).; type: functional
[2] = cells; type: functional, cell-based; settings: HEK-CNG
[3] = target: Beta-galactosidase (Escherichia coli, UniProt Q8VNN2); assay: Dose response counterscreen for EBI2 assay utilizing the enzyme, b-galactosidase.; type: functional
[4] = cells; settings: HEK293
[5] = EF1alpha-driven Renilla reporter with control 3'UTR suppression – Clone20-Shn3RL cells, dual-Glo, cherry-pick, set 2, counter-screen for Shn3 3'UTR targeting project, dose response (AID 720724); type: functional, cell-based; settings: Dual-Go Shn3RL
[6] = reduction of Shn3 3'UTR-driven luciferase in osteoblasts – cell-based, Clone20 osteoblasts, firefly luciferase, cherry-picked, dose response (AID 624132); type: functional;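 note: firefly luciferase luminescence from reporter carrying the Shn3 3'UTR in osteoblasts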
[7] = Shn3 3'UTR reporter signal decrease – cell-based, Clone20 osteoblasts, firefly luciferase, cherry-pick, set 2, Schnurri-3 inhibitor project, dose response (AID 720490); type: functional;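 note: actives lower the luminescence signal as inhibitors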
[8] = non-specific 3'UTR reporter inhibition in Clone20-Shn3RL – cell-based, Renilla luciferase, cherry-picked, counter-screen for Shn3 inhibitor project, dose response (AID 624133); type: functional
[9] = loss of viability in HepG2 cells – cell-based, CellTiter-Glo, cherry-picked, cytotoxicity control for Shn3 inhibitor project, dose response (AID 624134); type: functional
[10] = test system: INS1; assay: INS-1E survival protection against cytokine death – cell-based, luminescence, retest, dose response (AID 449756); type: functional; settings: Rattus norvegicus, INS1;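 note: cell death triggered by IL-1 beta plus TNF-alpha plus IFN-gamma mixture; protective hits raise ATP signal compared with cytokine alone wells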
[11] = target: T1, Caspase-3 (Homo sapiens, UniProt P42574); assay: Dose-response confirmation of uHTS inhibitor hits of Sentrin-Specific Protease 8 in a Caspase-3 Fluorescence assay.; type: functional
T1 sequence (P42574 whole entry): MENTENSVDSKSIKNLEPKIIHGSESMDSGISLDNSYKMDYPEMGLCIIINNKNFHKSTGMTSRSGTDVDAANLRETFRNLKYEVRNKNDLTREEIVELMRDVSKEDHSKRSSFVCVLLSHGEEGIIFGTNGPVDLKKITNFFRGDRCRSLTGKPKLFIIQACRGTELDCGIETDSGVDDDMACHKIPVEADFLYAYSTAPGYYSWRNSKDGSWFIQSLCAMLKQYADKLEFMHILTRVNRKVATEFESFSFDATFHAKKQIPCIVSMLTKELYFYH

[12] = target: T2, Sentrin-specific protease 8 (Homo sapiens, UniProt Q96LD8); type: functional
T2 sequence (Q96LD8 whole entry): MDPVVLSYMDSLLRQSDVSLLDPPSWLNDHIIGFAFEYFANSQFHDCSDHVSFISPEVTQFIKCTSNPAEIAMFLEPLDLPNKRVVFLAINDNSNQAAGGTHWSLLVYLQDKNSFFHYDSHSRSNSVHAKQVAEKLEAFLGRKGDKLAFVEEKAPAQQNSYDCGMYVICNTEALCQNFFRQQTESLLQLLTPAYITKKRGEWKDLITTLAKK

[13] = target: T3, Polyadenylate-binding protein 1 (Homo sapiens, UniProt P11940); assay: MLLE binding blockers, Cy5 peptide tracer – biochemical, fluorescence polarization, Cy5-PAM2 peptide, secondary, miRNA deadenylation inhibitor project, dose response (AID 602260); type: functional; settings: read-out: IC50_Mean
[14] = target: T2, Sentrin-specific protease 8; type: functional; remark: listed apart in the source
[15] = target: Tyrosyl-DNA phosphodiesterase 2 (Homo sapiens, UniProt O95551); assay: potency against TDP2 phosphodiesterase activity – biochemical, epi absorbance, IC50, dose response (AID 743297)
[16] = target: T3, Polyadenylate-binding protein 1; assay: MLLE domain peptide-binding blockers, IC50 – biochemical, fluorescence polarization, FITC-PAM2 peptide, dose response (AID 602259); type: functional; settings: read-out: IC50_Mean
[17] = target: T4, Trace amine-associated receptor 1 (Homo sapiens, UniProt Q96RJ0); assay: Fluorescence-based cell-based high throughput dose response assay to identify antagonists of the human trace amine associated receptor 1 (TAAR1).; type: functional
T4 sequence (Q96RJ0 whole entry): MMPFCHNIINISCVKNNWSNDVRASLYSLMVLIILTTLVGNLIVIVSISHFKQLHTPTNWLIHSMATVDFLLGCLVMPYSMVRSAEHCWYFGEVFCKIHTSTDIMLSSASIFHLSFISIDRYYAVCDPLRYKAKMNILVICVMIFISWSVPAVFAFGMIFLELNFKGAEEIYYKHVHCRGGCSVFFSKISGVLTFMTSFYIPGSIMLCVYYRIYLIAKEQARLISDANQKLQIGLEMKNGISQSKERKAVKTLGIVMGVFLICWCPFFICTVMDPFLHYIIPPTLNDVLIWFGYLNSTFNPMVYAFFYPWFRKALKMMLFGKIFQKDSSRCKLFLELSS

[18] = Counterscreen for antagonists of the human trace amine associated receptor 1 (hTAAR1): Fluorescence-based cell-based high throughput dose response assay to identify nonselective Ga16 antagonists.; type: functional
[19] = Counterscreen for […] of the human trace amine associated receptor 1 (TAAR1): Fluorescence-based cell-based high throughput dose response assay to identify nonselective Ga16 agonists.; type: functional
[20] = target: T4, Trace amine-associated receptor 1; assay: Counterscreen for antagonists of the human trace amine associated receptor 1 (hTAAR1): Fluorescence-based cell-based high throughput dose response assay to identify TAAR1 Agonists.; type: functional
[21] = target: 1-phosphatidylinositol 4,5-bisphosphate phosphodiesterase beta-3 (Homo sapiens, UniProt Q01970); assay: Fluorescence-based biochemical high throughput dose response assay to identify inhibitors of phospholipase C isozymes (PLC-B3).
[22] = target: 1-phosphatidylinositol 4,5-bisphosphate phosphodiesterase gamma-1 (Homo sapiens, UniProt P19174); assay: Counterscreen for inhibitors of phospholipase C isozymes (PLC-B3): Fluorescence-based biochemical high throughput dose response assay to identify inhibitors of phospholipase C isozymes (PLC-gamma1).
[23] = test system: HEK293; assay: inhibition of NOD1-driven NF-kB reporter – cell-based, luminescence, uHTS, primary screen (AID 1578); type: functional; settings: Homo sapiens
[24] = test system: HEK293; assay: cells; type: functional, cell-based; settings: Homo sapiens
[25] = target: ADP-ribosylation factor GTPase-activating protein 1 (Rattus norvegicus, UniProt Q62848); assay: Fluorescence polarization-based biochemical high throughput dose response screening assay to identify inhibitors of ADP-ribosylation factor GTPase activating protein 1 (ARFGAP1).; type: functional
[26] = target: Arf-GAP with SH3 domain, ANK repeat and PH domain-containing protein 1 (Homo sapiens, UniProt Q9ULH1); type: functional;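 note: biochemical fluorescence polarization dose–response screen measuring inhibition of ASAP1; ASAP1 GAP domain stimulating GTP hydrolysis by truncated human ARF1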
[27] = test system: HEK293; assay: NOD2 signaling inhibitors in MDP-stimulated cells, cell-based, uHTS, luminescence (AID 2001); type: functional; settings: Homo sapiens
[28] = test system: HEK293; assay: cells; type: functional, cell-based; settings: Homo sapiens; remark: listed apart in the source
[29] = target: T5, Beta-2 adrenergic receptor (Homo sapiens, UniProt P07550); assay: ADRB2 activation measured by internalization – cell-based, FAP fluorogen, flow cytometry, cherry pick 1, dose response (AID 588763); type: functional
[30] = target: T5, Beta-2 adrenergic receptor; assay: Dose response for HTS for Beta-2AR agonists via FAP method from Powderset1.; type: functional
[31] = target: 5-hydroxytryptamine receptor 2A (Mus musculus, UniProt P35363); type: functional, cell-based;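 note: CHO-K1 cells with tagged receptor and beta-arrestin; agonist potency measured as compound-induced activation of the receptor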
[32] = target: Mu-type opioid receptor (Homo sapiens, UniProt P35372); type: functional, cell-based;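 note: U2OS cells with beta-arrestin recruitment to OPRM1 by beta-gal complementation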
Sequence of Mu-type opioid receptor (P35372 whole entry): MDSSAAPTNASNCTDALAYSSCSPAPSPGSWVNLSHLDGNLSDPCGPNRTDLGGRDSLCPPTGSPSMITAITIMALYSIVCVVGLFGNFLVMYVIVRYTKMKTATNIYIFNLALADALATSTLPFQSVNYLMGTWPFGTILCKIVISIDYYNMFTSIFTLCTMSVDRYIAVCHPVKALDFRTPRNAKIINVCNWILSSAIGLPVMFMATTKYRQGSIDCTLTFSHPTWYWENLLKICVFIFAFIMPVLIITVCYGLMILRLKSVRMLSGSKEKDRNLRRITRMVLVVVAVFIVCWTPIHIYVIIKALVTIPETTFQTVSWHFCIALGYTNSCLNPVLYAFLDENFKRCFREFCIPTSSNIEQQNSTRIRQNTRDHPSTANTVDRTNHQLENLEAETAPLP

T5 sequence (P07550 whole entry): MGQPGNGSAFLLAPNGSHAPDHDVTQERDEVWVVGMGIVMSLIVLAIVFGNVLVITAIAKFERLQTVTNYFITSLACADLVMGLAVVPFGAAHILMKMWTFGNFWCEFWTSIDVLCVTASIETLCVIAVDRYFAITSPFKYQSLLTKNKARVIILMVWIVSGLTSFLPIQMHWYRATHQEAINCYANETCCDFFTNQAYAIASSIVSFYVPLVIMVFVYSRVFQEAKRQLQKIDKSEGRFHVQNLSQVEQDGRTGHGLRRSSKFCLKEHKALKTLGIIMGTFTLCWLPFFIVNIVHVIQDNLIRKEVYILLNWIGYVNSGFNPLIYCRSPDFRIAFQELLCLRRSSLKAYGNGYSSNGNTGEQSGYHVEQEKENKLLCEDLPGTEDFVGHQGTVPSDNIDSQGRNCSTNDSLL
T3 sequence (P11940 whole entry): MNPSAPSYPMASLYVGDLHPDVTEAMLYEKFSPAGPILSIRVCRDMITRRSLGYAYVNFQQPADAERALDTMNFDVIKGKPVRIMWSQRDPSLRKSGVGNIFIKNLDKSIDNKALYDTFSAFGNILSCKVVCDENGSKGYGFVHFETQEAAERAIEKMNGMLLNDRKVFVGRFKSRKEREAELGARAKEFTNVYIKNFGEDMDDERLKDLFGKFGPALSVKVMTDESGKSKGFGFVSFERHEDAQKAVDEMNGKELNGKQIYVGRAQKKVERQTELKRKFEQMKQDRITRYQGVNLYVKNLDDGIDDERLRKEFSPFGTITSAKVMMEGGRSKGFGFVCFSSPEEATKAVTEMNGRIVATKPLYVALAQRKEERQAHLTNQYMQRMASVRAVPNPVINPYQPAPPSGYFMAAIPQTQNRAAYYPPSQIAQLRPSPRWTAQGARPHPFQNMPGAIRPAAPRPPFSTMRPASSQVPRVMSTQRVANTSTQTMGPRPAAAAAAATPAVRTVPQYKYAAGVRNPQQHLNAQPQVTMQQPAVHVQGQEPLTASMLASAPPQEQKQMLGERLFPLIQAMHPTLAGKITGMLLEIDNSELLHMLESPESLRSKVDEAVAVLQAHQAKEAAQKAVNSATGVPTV
Sequence of 5-hydroxytryptamine receptor 2A (P35363 whole entry): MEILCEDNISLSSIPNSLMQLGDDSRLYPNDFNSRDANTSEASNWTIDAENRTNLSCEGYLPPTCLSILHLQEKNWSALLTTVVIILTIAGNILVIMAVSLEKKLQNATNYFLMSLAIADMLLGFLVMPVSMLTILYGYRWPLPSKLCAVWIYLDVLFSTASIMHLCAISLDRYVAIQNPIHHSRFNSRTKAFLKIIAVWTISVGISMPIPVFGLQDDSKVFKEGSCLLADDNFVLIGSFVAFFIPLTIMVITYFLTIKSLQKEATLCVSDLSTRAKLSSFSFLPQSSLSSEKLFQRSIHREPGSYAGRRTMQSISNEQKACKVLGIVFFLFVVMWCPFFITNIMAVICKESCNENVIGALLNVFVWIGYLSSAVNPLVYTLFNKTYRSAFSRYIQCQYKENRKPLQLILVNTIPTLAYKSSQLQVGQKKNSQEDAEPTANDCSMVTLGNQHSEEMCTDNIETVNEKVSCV
Sequence of Tyrosyl-DNA phosphodiesterase 2 (O95551 whole entry, the tested form may be a part): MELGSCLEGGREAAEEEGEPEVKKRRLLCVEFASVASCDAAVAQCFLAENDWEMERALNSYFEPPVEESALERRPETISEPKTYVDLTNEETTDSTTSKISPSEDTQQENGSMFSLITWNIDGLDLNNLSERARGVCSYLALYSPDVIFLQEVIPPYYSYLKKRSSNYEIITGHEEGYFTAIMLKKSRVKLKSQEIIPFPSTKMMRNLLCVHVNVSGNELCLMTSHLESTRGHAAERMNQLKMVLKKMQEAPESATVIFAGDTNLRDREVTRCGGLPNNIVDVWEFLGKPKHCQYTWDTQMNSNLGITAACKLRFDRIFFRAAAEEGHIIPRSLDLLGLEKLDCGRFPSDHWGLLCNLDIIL
Sequence of ADP-ribosylation factor GTPase-activating protein 1 (Q62848 whole entry, the tested form may be a part): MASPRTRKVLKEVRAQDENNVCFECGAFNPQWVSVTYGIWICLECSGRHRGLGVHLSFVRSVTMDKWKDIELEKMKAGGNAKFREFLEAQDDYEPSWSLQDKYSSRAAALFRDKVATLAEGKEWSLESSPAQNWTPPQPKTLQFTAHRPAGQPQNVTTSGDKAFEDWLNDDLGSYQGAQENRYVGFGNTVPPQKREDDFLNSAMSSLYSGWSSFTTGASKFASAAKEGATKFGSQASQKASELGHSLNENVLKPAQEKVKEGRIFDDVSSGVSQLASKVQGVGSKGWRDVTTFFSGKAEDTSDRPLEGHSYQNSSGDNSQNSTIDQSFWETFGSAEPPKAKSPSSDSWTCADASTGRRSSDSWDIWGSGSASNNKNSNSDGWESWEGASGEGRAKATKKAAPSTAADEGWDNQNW
Sequence of 1-phosphatidylinositol 4,5-bisphosphate phosphodiesterase gamma-1 (P19174 whole entry): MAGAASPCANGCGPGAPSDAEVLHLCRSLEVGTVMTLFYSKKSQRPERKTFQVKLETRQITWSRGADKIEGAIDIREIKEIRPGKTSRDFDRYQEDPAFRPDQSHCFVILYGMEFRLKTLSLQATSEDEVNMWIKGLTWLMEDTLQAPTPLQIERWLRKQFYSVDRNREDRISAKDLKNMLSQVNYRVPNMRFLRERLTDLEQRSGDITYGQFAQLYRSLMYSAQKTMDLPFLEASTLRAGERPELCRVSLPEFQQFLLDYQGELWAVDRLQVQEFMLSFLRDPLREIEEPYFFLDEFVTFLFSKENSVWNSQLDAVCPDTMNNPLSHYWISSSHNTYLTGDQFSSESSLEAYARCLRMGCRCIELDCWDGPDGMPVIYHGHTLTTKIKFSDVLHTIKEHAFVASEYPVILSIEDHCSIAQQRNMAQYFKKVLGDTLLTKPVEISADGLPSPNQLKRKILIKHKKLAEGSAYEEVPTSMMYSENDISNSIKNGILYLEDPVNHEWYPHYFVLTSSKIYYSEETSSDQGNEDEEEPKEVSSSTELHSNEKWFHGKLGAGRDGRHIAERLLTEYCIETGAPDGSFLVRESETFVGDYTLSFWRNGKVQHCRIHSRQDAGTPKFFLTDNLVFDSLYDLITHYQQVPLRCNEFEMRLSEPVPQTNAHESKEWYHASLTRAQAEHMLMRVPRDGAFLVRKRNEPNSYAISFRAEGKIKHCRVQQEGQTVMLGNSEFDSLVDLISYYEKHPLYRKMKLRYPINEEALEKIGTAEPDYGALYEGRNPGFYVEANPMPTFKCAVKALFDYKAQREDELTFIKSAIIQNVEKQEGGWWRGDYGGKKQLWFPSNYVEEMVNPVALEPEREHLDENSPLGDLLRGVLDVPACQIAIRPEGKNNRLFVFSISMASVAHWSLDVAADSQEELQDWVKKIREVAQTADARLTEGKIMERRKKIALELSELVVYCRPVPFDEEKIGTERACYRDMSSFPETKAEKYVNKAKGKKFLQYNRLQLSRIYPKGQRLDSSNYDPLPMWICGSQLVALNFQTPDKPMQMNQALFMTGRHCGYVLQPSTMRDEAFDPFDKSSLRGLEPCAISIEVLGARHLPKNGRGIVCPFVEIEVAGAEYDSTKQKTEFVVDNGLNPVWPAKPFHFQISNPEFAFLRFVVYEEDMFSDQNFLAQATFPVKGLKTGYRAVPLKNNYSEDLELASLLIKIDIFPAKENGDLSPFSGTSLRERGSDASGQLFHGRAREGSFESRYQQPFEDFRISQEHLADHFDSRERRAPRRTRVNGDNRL
Sequence of Galanin receptor type 3 (O60755 whole entry): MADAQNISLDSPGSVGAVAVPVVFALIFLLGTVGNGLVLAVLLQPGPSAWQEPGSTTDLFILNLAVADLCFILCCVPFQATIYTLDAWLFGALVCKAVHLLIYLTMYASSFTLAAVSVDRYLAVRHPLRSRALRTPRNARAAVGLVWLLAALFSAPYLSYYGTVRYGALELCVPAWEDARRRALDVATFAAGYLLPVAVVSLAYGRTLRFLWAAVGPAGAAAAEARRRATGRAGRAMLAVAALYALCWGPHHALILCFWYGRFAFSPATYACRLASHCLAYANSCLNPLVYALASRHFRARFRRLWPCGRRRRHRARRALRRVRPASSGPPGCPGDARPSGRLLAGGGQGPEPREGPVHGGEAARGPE

In the case of `CNc1ccccc1C(C)(C)c1cc(-c2ccc(F)cc2)no1`, the IC50 [1] is reported as 3.74 µM (active) and the EC50 [2] is reported as > 29.9 µM (inactive).

For `S=C(NCC1CCCO1)N1CCN(c2nc(-c3ccc(Cl)cc3)cs2)CC1` (configuration not stated), the IC50 [3] was > 80 µM (inactive).

For `CC1CCN(C(=O)COc2cccc3c2CCN(Cc2ccccc2)C3=O)CC1`, the AC50 [4] was 28.7 µM (active).

With `CC(=O)N1c2ccc(S(=O)(=O)N3CCC(C(=O)N4CCN(c5cccc(C(F)(F)F)c5)CC4)CC3)cc2CC1C` (configuration not stated) the AC50 [5] was 1.47 µM (active), the AC50 [6] was 1.28 µM (active) and the AC50 [7] was 1.54 µM (active). The AC50 [8] was 4.45 µM (active), the AC50 [9] was > 70 µM (inactive) and the AC50 [10] was 7.43 µM (active).

In the case of `COc1ccc2c(c1)Cc1sc(NC(C)=O)nc1-2`, the IC50 [11] is reported as 23.9 µM (active), the IC50 [12] is reported as 9.19 µM (active) and the IC50 [13] is reported as > 66 µM (inactive). The IC50 [14] was 6.35 µM (active), the IC50 [15] was 67.5 µM (inactive) and the IC50 [16] was > 66 µM (inactive).

In the case of `CCOC(=O)C1CCCN(c2c(C(=O)c3ccccc3)cnc3ccc(OC)cc23)C1` (configuration not stated), the IC50 [17] is reported as 4.06 µM (active), the IC50 [18] is reported as > 29.9 µM (inactive) and the EC50 [19] is reported as > 29.9 µM (inactive). For the same compound, the EC50 [20] was 11.6 µM (inactive).

In the case of `O=C(C[S+]([O-])c1cccc(C(F)(F)F)c1)Nc1ccc(Cl)cc1Cl` (configuration not stated), the IC50 [21] is reported as > 122 µM (inactive) and the IC50 [22] is reported as 56.9 µM (inactive).

With `Clc1cccc(Cl)c1CONC=Nc1ncnc2sccc12` the EC50 [23] was > 20 µM (inactive), the IC50 [24] was 7.79 µM (active) and the IC50 [25] was 30.3 µM (inactive). The IC50 [26] was 12.3 µM (inactive), the IC50 [27] was 8.22 µM (active) and the IC50 [28] was > 20 µM (inactive).

For `CC(C)(C)c1ccc(OCC(=O)Nc2ccc(-c3nc4cccnc4o3)cc2)cc1`, the EC50 [29] was 0.0672 µM (active) and the EC50 [30] was 0.0199 µM (active).

For `OCC1(Cc2ccc(Cl)cc2)CCN(CCCc2ccccc2)CC1`, the EC50 [31] was 76.1 µM (inactive) and the EC50 [32] was 92.5 µM (inactive).
